Columns and labels:
[1] = target: HSP27 (Homo sapiens, UniProt P04792); assay: Capillary electrophoresis of heat-denatured citrate synthase protein precipitates; type: biochemical; details: for Efficacy compared with BVDU: 10 μmol/L vs 750 μmol/L BVDU
Description: (§1) Since the heat-denatured protein aggregates of the citrate synthase from Example 1 are not water-soluble, these can be separated completely from the supernatant by means of centrifugation at room temperature at 16,000×g, 10 min. By using capillary electrophoresis, the compositions of the separated precipitates can be shown and quantified. The relative quantity of protein of precipitated citrate synthase serves as a measure of the efficacy of the test substances.
(§2) In each case, 481 nmol/L HSP27 and 1.44 μmol/L citrate synthase in 40 mmol/L HEPES buffer, pH 7.4, were employed. The relative quantity of protein of the precipitated citrate synthase in each case was normalized using a defined quantity of BSA as internal standard. The relative quantity of protein that precipitated when using 750 μmol/L BVDU was set at 1. The other test substances (2 representatives of phenothiazine derivatives of general formula (V), 2 representatives of purine derivatives of formula (I) or (II)) were each employed at a concentration of 10 μmol/L.
as §1, with “Example 2” for “Example 1”
as §2, with “nM” for “nmol/L”, “thymine” for “purine”, “were” for “were each”, “μmol/L in each case.” for “μmol/L.”
Otherwise, the experiments were performed as described above: […]

[2] = system: RPMI-8226 cells; assay: Development of resistance to bortezomib in RPMI-8226 cells; type: cell-based
Description: The cell line RPMI-8226 (DMSZ 402) is a “multiple myeloma” cell line and was chosen because bortezomib is employed as a standard therapy for multiple myeloma. RPMI-8226 cells respond to bortezomib, express HSP27 and develop resistance to Velcade. RPMI-8226 cells were seeded at a cell count of 100,000 cells/ml in each case and regularly passaged. […] In contrast, for RPMI 8226 cells that were treated with 30 μmol/L BVDU, a final cell count of 160,000 cells/ml was detected whereas the final cell count for the culture without the addition of an HSP27 inhibitor amounted to 350,000 cells/ml. As a control, RPMI 8226 cells were treated with the respective test substances alone, FIG. 4b.

[3] = system: U937 cells; assay: Development of resistance to bortezomib in U937 cells; type: cell-based
Description: For this purpose, U937 cells (histiocytic lymphoma) were cultured in DMEM culture medium (+10% FCS) at 37° C., 5% CO2 in an H2O-saturated atmosphere. 100,000 cells/ml were seeded and incubated with the cytostatic agent bortezomib (0.1 ng/ml) and the respective test substance (dosage in the current experiment: 1 μM/L acepromazine). The reference substance, BVDU, was employed at a concentration of 30 μM/L. The cells were in each case passaged before the cell count reached 1,000,000 cells/ml. At each passage, 100,000 cells/ml were again seeded and the dose of the cytostatic agent bortezomib was increased stepwise (0.1 ng/mL or 0.05 ng/mL). The concentration of the test substances remained constant. As a result of the stepwise increase in the dosage of the cytostatic agent, resistance developed in the U937 cells. The development of resistance is prevented or inhibited in the case of a positively tested HSP27 inhibitor. The experiments from Example 6 were repeated in the same way, wherein U937 cells (histiocytic lymphoma) are cultured in DMEM culture medium (+10% FCS) at 37° C., 5% CO2 in an H2O-saturated atmosphere. 100,000 cells/ml were seeded and incubated with an initial concentration of 0.2 ng/ml of the cytostatic agent bortezomib and both without an inhibitor and with acepromazine as an HSP27 inhibitor at a concentration of 1 μM/L. The reference substance, BVDU, was employed at a concentration of 30 μM/L. The cells were passaged in each case before the cell count reached 1,000,000 cells/ml. At each passage, 100,000 cells/ml were again seeded and the dose of the cytostatic agent bortezomib was increased stepwise by 0.1 ng/mL. The concentration of the test substance and the reference substance remained constant. As a result of the stepwise increase in the dosage of the cytostatic agent, resistance developed in the U937 cells. The development of resistance is prevented or inhibited in the case of a positively tested HSP27 inhibitor. The cell line U-937 is a histiocytic lymphoma (DSMZ ACC 5). This cell line also responds to treatment with bortezomib, expresses HSP27 and develops resistance to bortezomib. Bortezomib is not the standard therapy for this lymphoma, but is being discussed as a possible therapeutic agent. U-937 cells were seeded with a cell count of 100,000 cells/ml in each case and regularly passaged. […] At the end of the experiment, 70,000 living cells per ml medium could be detected. For the treatment with 30 μmol/L BVDU, a final cell count of 250,000 cells/ml was detected whereas the final cell count in the culture without the addition of an HSP27 inhibitor amounted to 450,000 cells/ml. As a control, U-937 cells were treated with the respective test substances alone, FIG. 10b.

[4] = system: late-stage pancreatic cancer patients; details: cited from earlier work

Sequence of HSP27 (P04792 whole entry): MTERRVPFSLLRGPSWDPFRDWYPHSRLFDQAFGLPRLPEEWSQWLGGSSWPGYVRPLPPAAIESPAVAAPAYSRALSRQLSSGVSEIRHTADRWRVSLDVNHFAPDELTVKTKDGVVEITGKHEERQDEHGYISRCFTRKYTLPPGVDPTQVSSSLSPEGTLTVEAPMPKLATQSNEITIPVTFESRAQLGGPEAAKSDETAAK

## CC(=O)c1ccc2c(c1)N(CCCN(C)C)c1ccccc1S2 [Acepromazine]
[1]; 43° C. for 120 minutes (Table 1)
  Efficacy compared with BVDU: 74.25 x
[1]; 43° C. for 120 minutes (Table 2)
  Efficacy compared with BVDU: 74.25 x
[1]; 10 μmol/L, 43° C. for 120 minutes, relative to 750 μmol/L BVDU = 1 (Table 1)
  Rel. quantity of protein prec. CS: 0.99
[1]; 10 μmol/L, 43° C. for 120 minutes, relative to 750 μmol/L BVDU = 1 (Table 2)
  Rel. quantity of protein prec. CS: 0.99
[2]; bortezomib 0.2-0.4 ng/ml + 0.75 μmol/L acepromazine (FIG. 4a)
  development of resistance to the cytostatic agent bortezomib: significantly inhibited
[2]; bortezomib 0.2-0.4 ng/ml + 0.75 μmol/L acepromazine (FIG. 4a), without HSP27 inhibitor 350,000 cells/ml
  living cells at the end of the experiment: 30,000 living cells per ml medium
[3]; bortezomib 0.1-0.5 ng/ml + 0.75 μmol/L acepromazine (FIG. 10a)
  development of resistance to the cytostatic agent bortezomib: significantly inhibited
[3]; bortezomib 0.1-0.5 ng/ml + 0.75 μmol/L acepromazine (FIG. 10a), without HSP27 inhibitor 450,000 cells/ml
  living cells at the end of the experiment: 70,000 living cells per ml medium
[3]; bortezomib 0.1 to 0.5 ng/ml stepwise + 1 μM acepromazine (FIG. 2)
  development of resistance to bortezomib: no development of resistance occurred
[3]; bortezomib 0.1 to 0.5 ng/ml stepwise + 1 μM acepromazine (FIG. 2), without HSP27 inhibitor 790,000 cells/ml
  living cells at the end of the experiment: no living cells were detectable
[3]; bortezomib 0.2 to 0.4 ng/ml stepwise + 1 μM acepromazine (FIG. 3)
  development of resistance to bortezomib: no development of resistance occurred
[3]; bortezomib 0.2 to 0.4 ng/ml stepwise + 1 μM acepromazine (FIG. 3), without HSP27 inhibitor 230,000 cells/ml
  living cells at the end of the experiment: no living cells were detectable

## O=c1[nH]c(=O)n([C@H]2C[C@H](O)[C@@H](CO)O2)cc1/C=C/Br [BVDU, (E)-5-(2-bromovinyl)-2′-deoxyuridine]
[1]; 750 μmol/L, 43° C. for 70 minutes, set at 1 (Table 3)
  Rel. quantity of protein prec. CS: 1
[1]; 750 μmol/L, 43° C. for 120 minutes, set at 1 (Table 1)
  Rel. quantity of protein prec. CS: 1
[1]; 750 μmol/L, 43° C. for 120 minutes, set at 1 (Table 2)
  Rel. quantity of protein prec. CS: 1
[2]; bortezomib 0.075-0.275 ng/ml + 30 μmol/L BVDU (FIG. 9a), without HSP27 inhibitor 510,000 cells/ml
  final cell count: 340,000 cells/ml
[2]; bortezomib 0.2-0.4 ng/ml + 30 μmol/L BVDU (FIG. 4a), without HSP27 inhibitor 350,000 cells/ml
  final cell count: 160,000 cells/ml
[2]; bortezomib 0.2-0.4 ng/ml + 30 μmol/L BVDU (FIG. 5a), without HSP27 inhibitor 350,000 cells/ml
  final cell count: 160,000 cells/ml
[3]; bortezomib 0.1-0.5 ng/ml + 30 μmol/L BVDU (FIG. 10a), without HSP27 inhibitor 450,000 cells/ml
  final cell count: 250,000 cells/ml
[3]; bortezomib 0.1-0.5 ng/ml + 30 μmol/L BVDU (FIG. 11a), without HSP27 inhibitor 450,000 cells/ml
  final cell count: 250,000 cells/ml
[3]; bortezomib 0.1 to 0.5 ng/ml stepwise + 30 μM BVDU (FIG. 2), without HSP27 inhibitor 790,000 cells/ml
  final cell count: 430,000 cells/ml
[3]; bortezomib 0.2 to 0.4 ng/ml stepwise + 30 μM BVDU (FIG. 3), without HSP27 inhibitor 230,000 cells/ml
  final cell count: 60,000 cells/ml
[4]; administered dose of 500 mg/day, oral
  safety and efficacy in patients: works safely and efficiently
[4]; increased administered dose of 760 mg/day
  tolerability in low-weight patients: proved disadvantageous for low-weight patients

Source: patent US10940150B2, “Thymine derivatives and quinazoline-dione derivatives for the inhibition of HSP27” (TECHNISCHE UNIVERSITAET DRESDEN, priority 2014, dated 2021)
